Measurements: PubChem BioAssay AID330 (DTP/NCI, 2004)
Where “and” joins values, the source holds several entries; their conditions need not be identical. Identical values can stand only once. Inconclusive results and toxic doses are left out. Numbered stars: 1 amine (or outer) side, 2 acyl side, 3 side chain; on linkers, the order of the positions; unused ones are H or OH. Bridge positions count the residues as written; N and C are the ends. Square brackets hold non-standard residues; d marks the D form. Peptide text beside a SMILES is read from it. * marks the point of attachment. ξ: configuration not given here. ξOrn(4,5-diOH) = O=C(C(CC(O)C(O)N[*:3])N[*:1])[*:2]; ξhTyr(βξ-OH,γξ-OH) = NC(C(=O)O)C(O)C(O)c1ccc(O)cc1; ξPro(3ξ-OH,4ξ-Me) = CC1CNC(C(=O)O)C1O; X22 = CCCCC/C=C/C/C=C\CCCCCCCC(=O)*; Hyp = O=C(O)[CH]1C[CH](O)CN1

System: P388 leukemia ip, CD2F1 mice, survival T/C
Experiment: NCI In Vivo Anticancer Drug Screen. Data for tumor model P388 Leukemia (intraperitoneal) in CD2F1 (CDF1) mice
Conditions: endpoint: median survival time, higher = longer survival
How it was run: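 Mice carrying the transplanted tumor received test compound or vehicle. Survival was recorded in each group, and the value is the treated-group measurement divided by that of the vehicle-treated control group.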

[1] = dose: 60.0 mg/kg/injection, schedule: Q01DX005 (ip), vehicle: saline
[2] = dose: 60.0 mg/kg/injection, schedule: Q01DX005 (ip), vehicle: saline with Tween-80
[3] = dose: 120.0 mg/kg/injection, schedule: Q01DX005 (ip), vehicle: saline with Tween-80
[4] = dose: 240.0 mg/kg/injection, schedule: Q01DX005 (ip), vehicle: saline with Tween-80
[5] = dose: 50.0 mg/kg/injection, schedule: Q01DX009 (ip), vehicle: Klucel (hydroxypropylcellulose) (HPC)
[6] = dose: 100.0 mg/kg/injection, schedule: Q01DX009 (ip), vehicle: Klucel (hydroxypropylcellulose) (HPC)
[7] = dose: 200.0 mg/kg/injection, schedule: Q01DX009 (ip), vehicle: Klucel (hydroxypropylcellulose) (HPC)
[8] = dose: 50.0 mg/kg/injection, schedule: Q01DX005 (ip), vehicle: saline with Tween-80
[9] = dose: 100.0 mg/kg/injection, schedule: Q01DX005 (ip), vehicle: saline with Tween-80
[10] = dose: 200.0 mg/kg/injection, schedule: Q01DX005 (ip), vehicle: saline with Tween-80

SMILES: CN=S(=O)(c1ccccc1)C1(C)CC(C)=C(C)CS1=O (stereo unspecified)
- T/C [1]: 94 % of control
- T/C (dose: 120.0 mg/kg/injection, schedule: Q01DX005 (ip), vehicle: saline): 97 % of control
- T/C (dose: 240.0 mg/kg/injection, schedule: Q01DX005 (ip), vehicle: saline): 103 % of control

SMILES: COC(=O)C1CC(C)N1C(C)C (stereo unspecified)
- T/C (dose: 50.0 mg/kg/injection, schedule: Q01DX005 (ip), vehicle: saline): 95 % of control
- T/C (dose: 100.0 mg/kg/injection, schedule: Q01DX005 (ip), vehicle: saline): 97 % of control
- T/C (dose: 200.0 mg/kg/injection, schedule: Q01DX005 (ip), vehicle: saline): 100 % of control

SMILES: CCOC(C)OCCCI (stereo unspecified)
- T/C [2]: 105 % of control
- T/C [3]: 101 % of control
- T/C [4]: 105 % of control

SMILES: O=c1ccn(C2OC(COC(c3ccccc3)(c3ccccc3)c3ccccc3)C(OC(c3ccccc3)(c3ccccc3)c3ccccc3)C2O)c(=O)[nH]1 (stereo unspecified)
- T/C (dose: 25.0 mg/kg/injection, schedule: Q01DX005 (ip), vehicle: Klucel (hydroxypropylcellulose) (HPC)): 99 % of control
- T/C (dose: 50.0 mg/kg/injection, schedule: Q01DX005 (ip), vehicle: Klucel (hydroxypropylcellulose) (HPC)): 95 % of control
- T/C (dose: 100.0 mg/kg/injection, schedule: Q01DX005 (ip), vehicle: Klucel (hydroxypropylcellulose) (HPC)): 105 % of control
- T/C (dose: 200.0 mg/kg/injection, schedule: Q01DX005 (ip), vehicle: Klucel (hydroxypropylcellulose) (HPC)): 97 % of control

SMILES: Cn1cnc([N+](=O)[O-])c1[Se]c1nc(N)nc2c1ncn2C1OC(CO)C(O)C1O (stereo unspecified)
- T/C (dose: 2.0 mg/kg/injection, schedule: Q01DX009 (ip), vehicle: distilled water + Tween-80): 116 % of control
- T/C (dose: 4.0 mg/kg/injection, schedule: Q01DX009 (ip), vehicle: distilled water + Tween-80): 121 % of control
- T/C (dose: 32.0 mg/kg/injection, schedule: Q01DX009 (ip), vehicle: distilled water + Tween-80): 160 % of control
- T/C (dose: 32.0 mg/kg/injection, schedule: Q01DX009 (ip), vehicle: water): 175 % of control
- T/C (dose: 64.0 mg/kg/injection, schedule: Q01DX009 (ip), vehicle: water): 100 % of control

SMILES: CC1=NN(c2ccccc2)C(=O)/C1=C1\SS/C(=C2\C(=O)N(c3ccccc3)N=C2C)S1
- T/C (dose: 12.5 mg/kg/injection, schedule: Q01DX009 (ip), vehicle: Klucel (hydroxypropylcellulose) (HPC)): 100 % of control
- T/C (dose: 25.0 mg/kg/injection, schedule: Q01DX009 (ip), vehicle: Klucel (hydroxypropylcellulose) (HPC)): 103 % of control
- T/C [5]: 121 % of control and 90 % of control
- T/C [6]: 92 % of control and 94 % of control
- T/C [7]: 102 % of control

SMILES: COc1ccc2c(CC(=O)O)cc(=O)oc2c1
- T/C [2]: 102 % of control
- T/C [3]: 120 % of control
- T/C [4]: 99 % of control

SMILES: NC(=O)N=Nc1c(F)c(F)c(F)c(F)c1F
- T/C (dose: 6.25 mg/kg/injection, schedule: Q01DX005 (ip), vehicle: saline with Tween-80): 103 % of control
- T/C (dose: 12.5 mg/kg/injection, schedule: Q01DX005 (ip), vehicle: saline with Tween-80): 106 % of control
- T/C (dose: 25.0 mg/kg/injection, schedule: Q01DX005 (ip), vehicle: saline with Tween-80): 116 % of control
- T/C [8]: 116 % of control
- T/C [9]: 113 % of control

SMILES: CCCCC/C=C/C/C=C\CCCCCCCC(=O)NC1CC(O)C(O)NC(=O)C2C(O)C(C)CN2C(=O)C(C(C)O)NC(=O)C(C(O)C(O)c2ccc(O)cc2)NC(=O)C2CC(O)CN2C(=O)C(C(C)O)NC1=O (stereo not drawn) (X22-[ξOrn(4,5-diOH)]T[Hyp][ξhTyr(βξ-OH,γξ-OH)]T[ξPro(3ξ-OH,4ξ-Me)]; lactam 1-C; configuration not given here)
- T/C (dose: 0.25 mg/kg/injection, schedule: Q01DX009 (ip), vehicle: lactate): 100 % of control
- T/C (dose: 0.5 mg/kg/injection, schedule: Q01DX009 (ip), vehicle: lactate): 104 % of control

SMILES: COc1ccc(/C=C2\CCOc3ccc(C)cc3C2=O)cc1
- T/C (dose: 100.0 mg/kg/injection, schedule: Q04DX003 (ip), vehicle: Klucel (hydroxypropylcellulose) (HPC)): 94 % of control
- T/C (dose: 200.0 mg/kg/injection, schedule: Q04DX003 (ip), vehicle: Klucel (hydroxypropylcellulose) (HPC)): 96 % of control
- T/C (dose: 400.0 mg/kg/injection, schedule: Q04DX003 (ip), vehicle: Klucel (hydroxypropylcellulose) (HPC)): 102 % of control

SMILES: CCC(C)P(=O)(N1CC1C)N1CC1C (stereo unspecified)
- T/C (dose: 1.5 mg/kg/injection, schedule: Q01DX009 (ip), vehicle: saline): 104 % of control
- T/C (dose: 3.0 mg/kg/injection, schedule: Q01DX009 (ip), vehicle: saline): 109 % of control
- T/C (dose: 6.0 mg/kg/injection, schedule: Q01DX009 (ip), vehicle: saline): 109 % of control
- T/C (dose: 12.5 mg/kg/injection, schedule: Q04DX003 (ip), vehicle: saline): 95 % of control
- T/C (dose: 25.0 mg/kg/injection, schedule: Q04DX003 (ip), vehicle: saline): 95 % of control
- T/C (dose: 50.0 mg/kg/injection, schedule: Q04DX003 (ip), vehicle: saline): 113 % of control

SMILES: CCC(c1ccc(O)cc1)c1cc2c(cc1OCCO)OCO2 (stereo unspecified)
- T/C [8]: 95 % of control
- T/C [9]: 98 % of control
- T/C [10]: 95 % of control

SMILES: CCCCCCCCCCCCCCCC(=O)OC12CC(C)C3(O)C(C=C(CO)CC4(O)C(=O)C(C)=CC43)C1C2(C)CO (stereo unspecified)
- T/C (dose: 0.03 mg/kg/injection, schedule: Q01DX009 (ip), vehicle: saline with Tween-80): 119 % of control
- T/C (dose: 0.06 mg/kg/injection, schedule: Q01DX009 (ip), vehicle: saline with Tween-80): 100 % of control
- T/C (dose: 0.9 micrograms/kg/injection, schedule: Q01DX009 (ip), vehicle: other): 100 % of control
- T/C (dose: 1.8 micrograms/kg/injection, schedule: Q01DX009 (ip), vehicle: other): 99 % of control
- T/C (dose: 3.7 micrograms/kg/injection, schedule: Q01DX009 (ip), vehicle: other): 101 % of control
- T/C (dose: 7.5 micrograms/kg/injection, schedule: Q01DX009 (ip), vehicle: other): 101 % of control
- T/C (dose: 15.0 micrograms/kg/injection, schedule: Q01DX009 (ip), vehicle: other): 104 % of control
- T/C (dose: 30.0 micrograms/kg/injection, schedule: Q01DX009 (ip), vehicle: other): 104 % of control

SMILES: O=C1c2ccccc2C(=O)c2cc(NC(=O)C(F)(F)F)ccc21
- T/C (dose: 50.0 mg/kg/injection, schedule: Q01DX005 (ip), vehicle: Klucel + Tween-80): 99 % of control
- T/C (dose: 100.0 mg/kg/injection, schedule: Q01DX005 (ip), vehicle: Klucel + Tween-80): 95 % of control
- T/C (dose: 200.0 mg/kg/injection, schedule: Q01DX005 (ip), vehicle: Klucel + Tween-80): 96 % of control

SMILES: c1cc2c3c(cccc3c1)C(C1Cc3cccc4cccc1c34)C2 (stereo unspecified)
- T/C [5]: 97 % of control
- T/C [6]: 100 % of control
- T/C [7]: 88 % of control

SMILES: CC1CC(C)N(C)C(C)C1 (stereo unspecified)
- T/C (dose: 15.0 mg/kg/injection, schedule: Q01DX005 (ip), vehicle: saline): 103 % of control
- T/C (dose: 30.0 mg/kg/injection, schedule: Q01DX005 (ip), vehicle: saline): 99 % of control
- T/C [1]: 104 % of control

SMILES: C/C(=N\N)C1C(=O)c2ccccc2C1=O
- T/C (dose: 6.25 mg/kg/injection, schedule: Q01DX009 (ip), vehicle: saline): 100 % of control
- T/C (dose: 12.5 mg/kg/injection, schedule: Q01DX009 (ip), vehicle: saline): 105 % of control
- T/C (dose: 25.0 mg/kg/injection, schedule: Q01DX009 (ip), vehicle: saline): 101 % of control and 86 % of control
- T/C (dose: 50.0 mg/kg/injection, schedule: Q01DX009 (ip), vehicle: saline): 98 % of control

SMILES: CS/C(=N\N=C(/C)c1ccccn1)SS/C(=N/N=C(\C)c1ccccn1)SC
- T/C (dose: 12.5 mg/kg/injection, schedule: Q01DX005 (ip), vehicle: saline + Tween-80 + alcohol): 98 % of control
- T/C (dose: 25.0 mg/kg/injection, schedule: Q01DX005 (ip), vehicle: saline + Tween-80 + alcohol): 97 % of control
- T/C (dose: 50.0 mg/kg/injection, schedule: Q01DX005 (ip), vehicle: saline + Tween-80 + alcohol): 101 % of control and 103 % of control
- T/C (dose: 100.0 mg/kg/injection, schedule: Q01DX005 (ip), vehicle: saline + Tween-80 + alcohol): 111 % of control

SMILES: COc1cc(-c2ccc(N=Nc3cc(S(=O)(=O)O)c4ccccc4c3O)c(OC)c2)ccc1N=Nc1cc(S(=O)(=O)O)c2ccccc2c1O
- T/C (dose: 100.0 mg/kg/injection, schedule: Q01DX009 (ip), vehicle: saline): 99 % of control
- T/C (dose: 200.0 mg/kg/injection, schedule: Q01DX009 (ip), vehicle: saline): 104 % of control
- T/C (dose: 400.0 mg/kg/injection, schedule: Q01DX009 (ip), vehicle: saline): 115 % of control

SMILES: CC1(C)C(=NOCc2ccccc2)C(C)(C)C1=NOCc1ccccc1
- T/C [8]: 91 % of control
- T/C [9]: 87 % of control
- T/C [10]: 86 % of control
